Measured values published in patent publication US7553972B2, “Benzamide inhibitors of the P2X7 receptor” (Pfizer, Inc., priority 2003, dated 2009).

Biological target: T1, P2X7 receptor (Homo sapiens, UniProt Q99572)
T1 construct: endogenous in cells
T1 sequence (Q99572 1-595): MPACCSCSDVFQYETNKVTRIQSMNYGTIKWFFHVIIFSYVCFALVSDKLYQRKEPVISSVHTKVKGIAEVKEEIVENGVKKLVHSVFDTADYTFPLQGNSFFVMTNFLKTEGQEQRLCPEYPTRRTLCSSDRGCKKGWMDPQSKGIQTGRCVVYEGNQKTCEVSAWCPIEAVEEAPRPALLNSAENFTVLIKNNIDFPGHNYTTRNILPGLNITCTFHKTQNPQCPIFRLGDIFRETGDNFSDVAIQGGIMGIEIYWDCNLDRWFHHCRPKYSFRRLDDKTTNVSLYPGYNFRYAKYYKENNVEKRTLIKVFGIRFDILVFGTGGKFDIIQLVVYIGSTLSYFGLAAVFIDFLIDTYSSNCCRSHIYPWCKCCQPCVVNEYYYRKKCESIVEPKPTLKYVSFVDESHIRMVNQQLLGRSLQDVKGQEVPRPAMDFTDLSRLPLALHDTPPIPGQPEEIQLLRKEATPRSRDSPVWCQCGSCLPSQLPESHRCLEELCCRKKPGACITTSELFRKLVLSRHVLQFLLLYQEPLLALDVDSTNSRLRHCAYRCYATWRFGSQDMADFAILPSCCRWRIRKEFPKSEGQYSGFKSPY
Assay: Inhibition of ATP-stimulated IL-1β release from LPS-activated blood monocytes (P2X7 antagonist activity, ELISA readout)
Format: cell-based
Conditions: monocytes from normal volunteers, 10 ng/ml LPS 2 h, compound 30 min, 2 mM ATP 3 h, IL-1β by ELISA, triplicate wells; read-out: IC50 (inhibit 50% of the stimulation of the release of IL-1β from monocytes by ATP)
Procedure: In like manner, the compounds of the invention can be tested for antagonist activity at the P2X7 receptor using the cytokine IL-1β as the readout. Blood collected from normal volunteers in the presence of heparin is fractionated using lymphocyte separation medium obtained from Organon Technica (Westchester, Pa.). […] The resulting cell pellet was suspended in 10 ml of Maintenance Medium and a cell count was performed. In an average experiment, 2×10^5 mononuclear cells are seeded into each well of 96-well plates in a total volume of 0.1 ml. Monocytes are allowed to adhere for 2 hours, after which the supernatants are discarded and the attached cells are rinsed twice and then incubated in Maintenance Medium overnight at 37° C. in a 5% CO2 environment.
(§1) The cultured monocytes can be activated with 10 ng/ml LPS (E. coli serotype 055:B5; Sigma Chemicals, St. Louis, Mo.). […] ATP then is introduced (from a 100 mM stock solution, pH 7) to achieve a final concentration of 2 mM and the plate is incubated at 37° C. for an additional 3 hours. Media were harvested and clarified by centrifugation, and their IL-1[…] content was determined by ELISA (R&D Systems; Minneapolis, Minn.).
Blood was collected from normal volunteers in the presence of heparin, and was fractionated using lymphocyte separation medium obtained from Organon Technica (Westchester, Pa.). […] The resulting cell pellet was suspended in 10 ml of Maintenance Medium and a cell count was performed. Approximately, 2×10^5 mononuclear cells were seeded into each well of 96-well plates in a total volume of 0.1 ml. Monocytes were allowed to adhere for 2 hours, after which the supernatants were discarded and the attached cells were rinsed twice and then incubated in Maintenance Medium overnight at 37° C. in a 5% CO2 environment.
as §1, with “monocytes were” for “monocytes can be”, “then was” for “then is”, “plate was” for “plate is”, “their IL-1β” for “their IL-1[…]”

| SMILES | IC50 |
| --- | --- |
| Cc1ccc(C2(CNC(=O)c3cc(-c4ccc(C)nc4)ccc3Cl)CCCCC2)cc1 [Example 1, 2-Chloro-5-(6-methyl-pyridin-3-yl)-N-(1-p-tolyl-cyclohexylmethyl)-benzamide] | 29 nM |
| Cc1ccc(-c2ccc(Cl)c(C(=O)NCC3(O)CCCC(C)(C)C3)c2)nc1 (stereo not shown) [Example 2, 2-Chloro-N-(1-hydroxy-3,3-dimethyl-cyclohexylmethyl)-5-(5-methyl-pyridin-2-yl)-benzamide] | 11 nM |
| COc1ccc(Cn2cc(-c3ccc(Cl)c(C(=O)NCCc4ccccc4Cl)c3)cn2)cc1 [Example 6, 2-Chloro-N-[2-(2-chloro-phenyl)-ethyl]-5-[1-(4-methoxy-benzyl)-1H-pyrazol-4-yl]-benzamide] | 1400 nM |
| Cc1ccc(-c2ccc(Cl)c(C(=O)NCCc3ccccc3Cl)c2)nc1 [Example 7, 2-Chloro-N-[2-(2-chloro-phenyl)-ethyl]-5-(5-methyl-pyridin-2-yl)-benzamide] | 1660 nM |
| COc1ccc(-c2ccc(Cl)c(C(=O)NCCc3ccccc3Cl)c2)nn1 [Example 8, 2-Chloro-N-[2-(2-chloro-phenyl)-ethyl]-5-(6-methoxy-pyridazin-3-yl)-benzamide] | 525 nM |
| O=C(NCCc1ccccc1Cl)c1cc(-c2cn[nH]c2)ccc1Cl [Example 10, 2-Chloro-N-[2-(2-chloro-phenyl)-ethyl]-5-(1H-pyrazol-4-yl)-benzamide] | 800 nM |
| Cc1cc(-c2ccc(Cl)c(C(=O)NCC3(O)CCCC(C)(C)C3)c2)[nH]n1 (stereo not shown) [Example 13, 2-Chloro-N-(1-hydroxy-3,3-dimethyl-cyclohexylmethyl)-5-(5-methyl-2H-pyrazol-3-yl)-benzamide] | 8 nM |
| Cc1cc(-c2ccc(Cl)c(C(=O)NCC3(O)CCCC(C)(C)C3)c2)on1 (stereo not shown) [Example 14, 2-Chloro-N-(1-hydroxy-3,3-dimethyl-cyclohexylmethyl)-5-(3-methyl-isoxazol-5-yl)-benzamide] | 81 nM |
| CCc1cc(-c2ccc(Cl)c(C(=O)NCCc3ccccc3Cl)c2)[nH]n1 [Example 16, 2-Chloro-N-[2-(2-chloro-phenyl)-ethyl]-5-(5-ethyl-2H-pyrazol-3-yl)-benzamide] | 370 nM |
| Cc1ccc(C2(CNC(=O)c3cc(-c4cc[nH]n4)ccc3Cl)CCCCC2)cc1 [Example 17, 2-Chloro-5-(1H-pyrazol-3-yl)-N-(1-p-tolyl-cyclohexylmethyl)-benzamide] | 18 nM |
| O=C(NCCc1ccccc1Cl)c1cc(-c2cc[nH]n2)ccc1Cl [Example 18, 2-Chloro-N-[2-(2-chloro-phenyl)-ethyl]-5-(1H-pyrazol-3-yl)-benzamide] | 545 nM |
| Cc1cc(-c2ccc(Cl)c(C(=O)NCC3(C#N)CCCCCC3)c2)[nH]n1 [Example 21, 2-Chloro-N-(1-cyano-cycloheptylmethyl)-5-(5-methyl-2H-pyrazol-3-yl)-benzamide] | 46 nM |
| O=C(NCC1(O)CCCCCC1)c1cc(-c2cc(C3CC3)[nH]n2)ccc1Cl [Example 22, 2-Chloro-5-(5-cyclopropyl-1H-pyrazol-3-yl)-N-(1-hydroxy-cycloheptylmethyl)-benzamide] | 50 nM |
| O=C(NCC1(O)CCCCCC1)c1cc(-c2cc(C(F)(F)F)n[nH]2)ccc1Cl [Example 23, 2-Chloro-N-(1-hydroxy-cycloheptylmethyl)-5-(5-trifluoromethyl-1H-pyrazol-3-yl)-benzamide] | 200 nM |
| O=C(NCC1(O)CCCCCC1)c1cc(-c2ccnn2CCO)ccc1Cl [Example 26, 2-Chloro-N-(1-hydroxy-cycloheptylmethyl)-5-[2-(2-hydroxy-ethyl)-2H-pyrazol-3-yl]-benzamide] | 373 nM |
| Cc1cc(-c2ccc(Cl)c(C(=O)NCC3(O)CCCCCC3)c2)n(CCO)n1 [Example 31, 2-Chloro-N-(1-hydroxy-cycloheptylmethyl)-5-[2-(2-hydroxy-ethyl)-5-methyl-2H-pyrazol-3-yl]-benzamide] | 70 nM |

Second part, the compound after the results:

| IC50 | SMILES |
| --- | --- |
| 8 nM | COC[C@H](O)Cn1nc(-c2ccc(Cl)c(C(=O)NCC3(O)CCCCCC3)c2)cc1C (stereo in doubt) [Example 39, 2-Chloro-N-(1-hydroxy-cycloheptylmethyl)-5-[1-(2-hydroxy-3-methoxy-propyl)-5-methyl-1H-pyrazol-3-yl]-benzamide] |
| 280 nM | COc1ccc(-c2ccc(Cl)c(C(=O)NCC3(O)CCCCCC3)c2)nn1 [Example 4, 2-Chloro-N-(1-hydroxy-cycloheptylmethyl)-5-(6-methoxy-pyridazin-3-yl)-benzamide] |
| 930 nM | O=C(NCC1(O)CCCCCC1)c1cc(-c2ccc(=O)[nH]n2)ccc1Cl [Example 5, 2-Chloro-N-(1-hydroxy-cycloheptylmethyl)-5-(6-oxo-1,6-dihydro-pyridazin-3-yl)-benzamide] |
| 240 nM | Cc1cc(-c2ccc(Cl)c(C(=O)NCC3(O)CCCCCC3)c2)on1 [Example 12, 2-Chloro-N-(1-hydroxy-cycloheptylmethyl)-5-(3-methyl-isoxazol-5-yl)-benzamide] |
| 23 nM | CCc1cc(-c2ccc(Cl)c(C(=O)NCC3(O)CCCCCC3)c2)[nH]n1 [Example 15, 2-Chloro-5-(5-ethyl-2H-pyrazol-3-yl)-N-(1-hydroxy-cycloheptylmethyl)-benzamide] |
| 180 nM | O=C(NCC1(O)CCCCCC1)c1cc(-c2cc[nH]n2)ccc1Cl [Example 19, 2-Chloro-N-(1-hydroxy-cycloheptylmethyl)-5-(1H-pyrazol-3-yl)-benzamide] |
| 4 nM | Cc1cc(-c2ccc(Cl)c(C(=O)NCC3(O)CCCCCC3)c2)nn1CCO [Example 25, 2-Chloro-N-(1-hydroxy-cycloheptylmethyl)-5-[1-(2-hydroxy-ethyl)-5-methyl-1H-pyrazol-3-yl]-benzamide] |
| 31 nM | O=C(NCC1(O)CCCCCC1)c1cc(-c2ccn(CCO)n2)ccc1Cl [Example 27, 2-Chloro-N-(1-hydroxy-cycloheptylmethyl)-5-[1-(2-hydroxy-ethyl)-1H-pyrazol-3-yl]-benzamide] |
| 242 nM | Cn1ccc(-c2ccc(Cl)c(C(=O)NCC3(O)CCCCCC3)c2)n1 [Example 29, 2-Chloro-N-(1-hydroxy-cycloheptylmethyl)-5-(1-methyl-1H-pyrazol-3-yl)-benzamide] |
| 38 nM | NCCn1ccc(-c2ccc(Cl)c(C(=O)NCC3(O)CCCCCC3)c2)n1 [Example 32, 5-[1-(2-Amino-ethyl)-1H-pyrazol-3-yl]-2-chloro-N-(1-hydroxy-cycloheptylmethyl)-benzamide] |
| 11 nM | Cc1cc(-c2ccc(Cl)c(C(=O)NCC3(O)CCCCCC3)c2)nn1CCN [Example 33, 5-[1-(2-Amino-ethyl)-5-methyl-1H-pyrazol-3-yl]-2-chloro-N-(1-hydroxy-cycloheptylmethyl)-benzamide] |
| 193 nM | N#CCn1ccc(-c2ccc(Cl)c(C(=O)NCC3(O)CCCCCC3)c2)n1 [Example 34, 2-Chloro-5-(1-cyanomethyl-1H-pyrazol-3-yl)-N-(1-hydroxy-cycloheptylmethyl)-benzamide] |
| 121 nM | NC(=O)Cn1ccc(-c2ccc(Cl)c(C(=O)NCC3(O)CCCCCC3)c2)n1 [Example 35, 5-(1-Carbamoylmethyl-1H-pyrazol-3-yl)-2-chloro-N-(1-hydroxy-cycloheptylmethyl)-benzamide] |
| 51 nM | Cc1cc(-c2ccc(Cl)c(C(=O)NCC3(O)CCCCCC3)c2)nn1CC#N [Example 36, 2-Chloro-5-(1-cyanomethyl-5-methyl-1H-pyrazol-3-yl)-N-(1-hydroxy-cycloheptylmethyl)-benzamide] |
| 18 nM | Cc1cc(-c2ccc(Cl)c(C(=O)NCC3(O)CCCCCC3)c2)nn1CC(N)=O [Example 37, 5-(1-Carbamoylmethyl-5-methyl-1H-pyrazol-3-yl)-2-chloro-N-(1-hydroxy-cycloheptylmethyl)-benzamide] |
